Test results taken from article PMC11582173, “Synthesis, cytotoxicity, anti-inflammatory, anti-metastatic and anti-oxidant activities of novel chalcones incorporating 2-phenoxy-N-arylacetamide and thiophene moieties: induction of apoptosis in MCF7 and HEP2 cells” (Naunyn-Schmiedeberg's Archives of Pharmacology, 2024).
≈ marks a conversion by molar mass, not a printed value.

What was measured:
[1] = tested on: human laryngeal carcinoma (HEP2) cells; assay: SRB cytotoxic assay, HEP2; type: cell-based; conditions: HEp-2, 48 h; for inhibition at 100 µg/mL: single dose 100 µg/mL, read-out: %Inhibition at100 µg/mL HEP2
Method: (§1) All the prepared compounds were screened at a concentration of 100 µg/mL against six different human cell lines: human laryngeal carcinoma (HEP2), human colorectal carcinoma (HCT116), human breast carcinoma (MCF7), human Lung carcinoma (A549), human liver carcinoma (HEPG2), and normal African Green monkey kidney cell line (VERO). Doxorubicin was used as a positive control for comparison purposes.
(§2) The human laryngeal carcinoma (HEP2), colorectal carcinoma (HCT116), breast carcinoma (MCF7), Lung carcinoma (A549), liver carcinoma (HEPG2), and normal African Green monkey kidney cell line (VERO) were purchased from American Tissue Culture Collection (Rockville, MD, USA). The cells were treated for 48 h with a single dose (100 µg/mL) of all the tested chalcones. […] In brief, the cells were seeded in a 96-well microtiter plate at a concentration of 5×10^3 cells/well in 100 µL fresh RPMI-1640 medium and left to attach to the plates for 24 h. Then, cells were incubated with 100 μL of different concentrations (50, 25, 12.5, 6.25, and 0.0 µg/mL) of 5c in triplicate at 37 °C for 48 h. After that, the cells were fixed with 10 µL cold 100% Trichloroacetic acid (TCA) for 1h at 4 °C. The wells were then washed 1 time with distilled water using (automatic Tecan washer, Germany) and stained for 30 min at room temperature with 50 µL 0.4% SRB dissolved in 1% acetic acid. The plates were air-dried and the dye was solubilized with 100 µl/well of 1M tris base (pH 10.5) for 5 min. The optical density (O.D.) of each well was measured spectrophotometrically at 570 nm with an ELISA microplate reader (Sunrise Tecan reader, Germany) with automatic shaking for 30 seconds before reading. The mean background absorbance was subtracted automatically and mean values for each drug concentration were calculated. The percentage of cell survival was calculated as follows: Survival fraction= O.D. (treated cells)/ O.D. (control cells) (Bhat et al. [2023]).

[2] = tested on: human colorectal carcinoma (HCT116) cells; assay: SRB cytotoxic assay, HCT116; type: cell-based; conditions: HCT-116, single dose 100 µg/mL, 48 h, read-out: %Inhibition at100 µg/mL HCT116
Method: as §1, §2

[3] = tested on: human breast carcinoma (MCF7) cells; assay: SRB cytotoxic assay, MCF7; type: cell-based; conditions: MCF7, 48 h; for inhibition at 100 µg/mL: single dose 100 µg/mL, read-out: %Inhibition at100 µg/mL MCF7
Method: as §1, §2

[4] = tested on: human Lung carcinoma (A549) cells; assay: SRB cytotoxic assay, A549; type: cell-based; conditions: single dose 100 µg/mL, 48 h, read-out: %Inhibition at100 µg/mL A549
Method: as §1, §2

[5] = tested on: human liver carcinoma (HEPG2) cells; assay: SRB cytotoxic assay, HEPG2; type: cell-based; conditions: single dose 100 µg/mL, 48 h, read-out: %Inhibition at100 µg/mL HEPG2
Method: as §1, §2

[6] = tested on: normal African Green monkey kidney cell line (VERO); assay: SRB cytotoxic assay, VERO normal cells; type: cell-based; conditions: Chlorocebus sabaeus, single dose 100 µg/mL, 48 h, read-out: %Inhibition at100 µg/mL VERO
Method: as §1, §2

MCF7 = tested on: MCF7; parameters: method as in Khairul et al. [2020]; conditions: reported chalcone derivatives; ref Khairul et al. [2020]; cited from earlier work

| melting point [°C] | Compound | inhibition at 100 µg/mL [1] [%] | inhibition at 100 µg/mL [2] [%] | inhibition at 100 µg/mL [3] [%] | inhibition at 100 µg/mL [4] [%] | inhibition at 100 µg/mL [5] [%] | inhibition at 100 µg/mL [6] [%] | IC50 cytotoxic effect against MCF7 (MCF7) [µg/mL] | IC50 [1] [µg/mL] | IC50 [3] [µg/mL] |
| --- | --- | --- | --- | --- | --- | --- | --- | --- | --- | --- |
| 202 to 204 | Cc1ccc(NC(=O)COc2ccc(C=CC(=O)c3cccs3)cc2)cc1 [Compound 5b, 2-(4-(3-Oxo-3-(thiophen-2-yl)prop-1-en-1-yl)phenoxy)-N-(p-tolyl)acetamide] | 7.2 ± 1.4 | 5.92 ± 1.2 | 0.52 ± 2.1 | 10.2 ± 2 | 25 ± 1.9 | 60 ± 1 |  |  |  |
| 205 to 207 | COc1ccc(NC(=O)COc2ccc(C(=O)C=Cc3cccs3)cc2)cc1 [Compound 9c, N-(4-Methoxyphenyl)-2-(4-(3-(thiophen-2-yl)acryloyl)phenoxy)acetamide] | 7.2 ± 1.7 | 16.3 ± 1.9 | 1.81 ± 1.3 | < 10 | < 10 | < 10 |  |  |  |
| 200 to 202 | Cc1ccc(NC(=O)COc2ccc(C(=O)C=Cc3cccs3)cc2)cc1 [Compound 9b, 2-(4-(3-(Thiophen-2-yl)acryloyl)phenoxy)-N-(p-tolyl)acetamide] | 17.9 ± 1.3 | 0.92 ± 1.7 | 18.6 ± 0.05 | 33 ± 3.1 | 26 ± 1.7 | 15 ± 2.4 |  |  |  |
| 198 to 200 | O=C(COc1ccc(C=CC(=O)c2cccs2)cc1)Nc1ccc(Cl)cc1 [Compound 5d, N-(4-Chlorophenyl)-2-(4-(3-oxo-3-(thiophen-2-yl)prop-1-en-1-yl)phenoxy)acetamide] | 0.36 ± 0.05 | 0.85 ± 1.1 | 40.09 ± 0.07 | 44.1 ± 1.3 | 45.2 ± 1.7 | 80 ± 2 |  |  |  |
|  | CCCCCCOc1ccc(/C=C/C(=O)c2ccc(C#N)cc2)cc1 [(E)-1-(4-cyanophenyl)-3-(4-(hexyloxy)phenyl) prop-2-en-1-one] |  |  |  |  |  |  | 13.75 (≈ 41.2 µM) |  |  |
|  | CCCCCCOc1ccc(/C=C/C(=O)c2ccc([N+](=O)[O-])cc2)cc1 [(E)-1-(4-nitrophenyl)-3-(4-(hexyloxy)phenyl) prop-2-en-1-one] |  |  |  |  |  |  | 14.75 (≈ 41.7 µM) |  |  |
|  | COc1cccc2c1C(=O)c1c(O)c3c(c(O)c1C2=O)C[C@@](O)(C(=O)CO)C[C@@H]3O[C@H]1C[C@H](N)[C@H](O)[C@H](C)O1 [Doxorubicin, reference compound] | 83.2 ± 1.1 | 71.5 ± 0.9 | 86.6 ± 1.6 | 77 ± 1.5 | 81 ± 2 | 45 ± 2 |  | 11 (≈ 20.2 µM) | 5.5 (≈ 10.1 µM) |
| 193 to 195 | O=C(COc1ccc(C(=O)C=Cc2cccs2)cc1)Nc1ccc(Cl)cc1 [Compound 9d, N-(4-Chlorophenyl)-2-(4-(3-(thiophen-2-yl)acryloyl)phenoxy)acetamide] | 17.9 ± 2.3 | 6.66 ± 3.3 | 2.28 ± 4.1 | < 10 | < 10 | 10 ± 1 |  |  |  |
|  | O=C(COc1ccc(C(=O)C=Cc2cccs2)cc1)Nc1ccccc1 [Compound 9a, N-Phenyl-2-(4-(3-(thiophen-2-yl)acryloyl)phenoxy)acetamide] | > 75 | 44.7 ± 1 | > 75 | 52 ± 2.7 | 64 ± 1.5 | 58 ± 1.4 |  | 15.5 (≈ 42.6 µM) | 24.5 (≈ 67.4 µM) |
| 194 to 196 | O=C(COc1ccc(C=CC(=O)c2cccs2)cc1)Nc1ccccc1 [Compound 5a, 2-(4-(3-Oxo-3-(thiophen-2-yl)prop-1-en-1-yl)phenoxy)-N-phenylacetamide] | 4.53 ± 0.08 | 5.18 ± 1.6 | 33.7 ± 1.5 | 22 ± 1.4 | 30 ± 1.2 | 55 ± 3 |  |  |  |
